Where two headings read alike, the source gives them in different places.
What was measured:
[1] = system: Caco-2 cell monolayers; test: Caco-2 permeability assay; type: in vitro ADME, human
Source text: Caco-2 cells are commonly used in a confluent monolayer on a cell culture insert filter. When cultured in this format and under specific conditions, the cells become differentiated and polarized such that their phenotype, morphologically and functionally resembles the enterocytes lining the small intestine. The cell monolayer provides a physical and biochemical barrier to the passage of small molecules, and is widely used across the pharmaceutical industry as an in vitro model of the human small intestinal mucosa to predict the absorption of orally administered drugs (Hidalgo et al., Gastroenterology, 1989; Artursson, J. Pharm. Sci., 1990). The correlation between the in vitro apparent permeability (P ? app) across Caco-2 monolayers and the in vivo absorption is well established (Artursson et al., Biochem. Biophys. Res. Comm., 1991).
The present assay was used to determine the bidirectional permeability of the compounds of the invention through Caco-2 cell monolayers. Caco-2 cells were grown in confluent monolayers where the media of both the apical (A) and basolateral (B) sides were at pH 7.4. Compounds were dosed at 1 μM in the presence of 200 μM Lucifer Yellow, on the apical side (A→B) or the basolateral side (B→A) for assessment, in duplicate.
The absorption potential of compounds were classified as either Low (P-app<1×10^−6 cm/s) or High (P-app>1×10^−6 cm/s).

[2] = system: P493-6 (myc "on") cells; test: Cell proliferation assay; type: cell-based; conditions: read-out: Cell prolif P493 72 h IC50
Procedure: P493-6 (myc “on”) cells were maintained in growth media (RPMI-1640, 10% FBS, 2 mM glutamine, 100 units/ml Penicillin and 100 μg/ml streptomycin) at 37° C. with 5% CO2. For compound assay, P493-6 cells were plated in 96-well V-bottom plates on the day of compound addition in 50 μl of growth media at a cell density of 200,000 cells/ml (10,000 cells/well). Compounds were serially diluted in 100% DMSO at 200-times the final concentration. Compounds were diluted 100-fold into growth media and then 50 μl of this mixture was added to cell plates making the final concentration of DMSO 0.5%. Cells were incubated with compound for 72 hrs at 37° C. with 5% CO2 and analyzed for antiproliferative effects either by Cell Titer Glo (Promega) or FACS analysis using the Viacount (Millipore) kit on the Guava instrument.

`CC(C)(C)OC(=O)NCc1cccc(CC(=O)Nc2nnc(CCCCc3ccc(NC(=O)Cc4ccccc4)nn3)s2)c1` [Compound 339] was tested, and the “Significant Efflux” value [1] was “Yes (efflux ratios being significant when greater than or equal to 3 when the Papp (B→A) was greater than or equal to 1×10^−6 cm/s)” and the IC50 ([2]; P493-6, 72 h) was 9 nM.
For `O=C(Cc1ccccc1)Nc1ccc(CCCCc2nnc(NC(=O)Cc3ccccn3)s2)nn1` [Compound 354], the “Significant Efflux” value [1] was “Yes (efflux ratios being significant when greater than or equal to 3 when the Papp (B→A) was greater than or equal to 1×10^−6 cm/s)” and the IC50 ([2]; P493-6, 72 h) was 47 nM.
For `CC(C(=O)Nc1ccc(CCCCc2nnc(NC(=O)Cc3cccc(CNC(=O)OC(C)(C)C)c3)s2)nn1)c1ccccc1` (stereo not shown) [Compound 436], the “Significant Efflux” value [1] was “Yes (efflux ratios being significant when greater than or equal to 3 when the Papp (B→A) was greater than or equal to 1×10^−6 cm/s)” and the IC50 ([2]; P493-6, 72 h) was 10 nM.
For `O=C(Cc1ccccc1Cl)Nc1ccc(CCCCc2nnc(NC(=O)Cc3ccccc3F)s2)nn1` [Compound 533], the “Significant Efflux” value [1] was “Yes (efflux ratios being significant when greater than or equal to 3 when the Papp (B→A) was greater than or equal to 1×10^−6 cm/s)” and the IC50 ([2]; P493-6, 72 h) was 41 nM.
`CC(C(=O)Nc1nnc(CCCCc2ccc(NC(=O)Cc3ccccc3)nn2)s1)c1ccccc1` (stereo not shown) [Compound 616] was tested, and the “Significant Efflux” value [1] was “Yes (efflux ratios being significant when greater than or equal to 3 when the Papp (B→A) was greater than or equal to 1×10^−6 cm/s)” and the IC50 ([2]; P493-6, 72 h) was 130 nM.
`O=C(Cc1cccc(OC(F)(F)F)c1)Nc1ccc(CCCCc2nnc(NC(=O)Cc3cccc(OC(F)(F)F)c3)s2)nn1` [Compound 660] was tested, and the “Significant Efflux” value [1] was “Yes (efflux ratios being significant when greater than or equal to 3 when the Papp (B→A) was greater than or equal to 1×10^−6 cm/s)” and the IC50 ([2]; P493-6, 72 h) was 37 nM.
With `O=C(Cc1cccc(OC(F)(F)F)c1)Nc1ccc(CCCCc2nnc(NC(=O)Cc3cccc(F)c3)s2)nn1` [Compound 679] the “Significant Efflux” value [1] was “No” and the IC50 ([2]; P493-6, 72 h) was 36 nM.
With `O=C(Cc1cccc(OC(F)(F)F)c1)Nc1ccc(CCCCc2nnc(NC(=O)[C@@H](O)c3ccccc3)s2)nn1` [Compound 703] the “Significant Efflux” value [1] was “Yes (efflux ratios being significant when greater than or equal to 3 when the Papp (B→A) was greater than or equal to 1×10^−6 cm/s)” and the IC50 ([2]; P493-6, 72 h) was 12 nM.
With `O=C(Cc1cccc(OC(F)(F)F)c1)Nc1ccc(CCCCc2nnc(NC(=O)[C@H](O)c3ccccc3)s2)nn1` [Compound 705] the “Significant Efflux” value [1] was “Yes (efflux ratios being significant when greater than or equal to 3 when the Papp (B→A) was greater than or equal to 1×10^−6 cm/s)” and the IC50 ([2]; P493-6, 72 h) was 32 nM.
In the case of `[2H]C([2H])(CCc1nnc(NC(=O)Cc2ccccn2)s1)C([2H])([2H])c1ccc(NC(=O)Cc2cccc(OC(F)(F)F)c2)nn1` [Compound 727], the IC50 ([2]; 72 h) is reported as 12 nM.
In the case of `Cc1cccc(CC(=O)Nc2nnc(CCCCc3ccc(NC(=O)Cc4cccc(OC(F)(F)F)c4)nn3)s2)n1` [Compound 728], the IC50 ([2]; P493-6, 72 h) is reported as 18 nM.
In the case of `COc1cc(CC(=O)Nc2ccc(CCCCc3nnc(NC(=O)Cc4ccccn4)s3)nn2)cc(OC(F)(F)F)c1` [Compound 729], the IC50 ([2]; P493-6, 72 h) is reported as 26 nM.
For `O=C(Cc1cc(O)cc(OC(F)(F)F)c1)Nc1ccc(CCCCc2nnc(NC(=O)Cc3ccccn3)s2)nn1` [Compound 730], the IC50 ([2]; P493-6, 72 h) was 25 nM.

From patent publication US10793535B2, “Heterocyclic glutaminase inhibitors” (Calithera Biosciences, Inc., priority 2012, dated 2020)
